Test results as given in ChEMBL document CHEMBL1201862, “PubChem BioAssay data set” (2004).
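The compound was tested at five concentrations on cells cultured in 96-well plates, with a 48-hour exposure period. The concentration for 50% growth inhibition is given as GI50.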 The source made the active and inactive calls. Cut-off read from the data, not from the text of the source: active = GI50 up to about 1.1 µM and inactive = higher.

Legend:
Assay in all cases: DTP human tumour cell line panel, 48 h
[1] = test system: UACC-62
[2] = test system: TK-10
[3] = test system: OVCAR-5
[4] = test system: SK-MEL-2
[5] = test system: CAKI-1
[6] = test system: HT-29
[7] = test system: SNB-75
[8] = test system: SN12C
[9] = test system: A549
[10] = test system: RPMI-8226
[11] = test system: KM-20L2
[12] = test system: EKVX
[13] = test system: OVCAR-4
[14] = test system: SW-620
[15] = test system: K562
[16] = test system: DMS-273
[17] = test system: NCI-H23
[18] = test system: SNB-19
[19] = test system: U-251
[20] = test system: SR
[21] = test system: M19-MEL
[22] = test system: XF498
[23] = test system: SF-295
[24] = test system: CCRF-CEM
[25] = test system: DMS-114
[26] = test system: NCI-H522
[27] = test system: 786-0
[28] = test system: SF-539
[29] = test system: HOP-62
[30] = test system: HCT-116
[31] = test system: DLD-1
[32] = test system: UACC-257
[33] = test system: KM12
[34] = test system: Malme-3M
[35] = test system: M14
[36] = test system: SK-MEL-5
[37] = test system: HL-60
[38] = test system: ACHN
[39] = test system: UO-31
[40] = test system: SK-MEL-28
[41] = test system: MOLT-4
[42] = test system: SK-OV-3
[43] = test system: SNB-78
[44] = test system: NCI-H460
[45] = test system: HCT-15
[46] = test system: HCC 2998
[47] = test system: OVCAR-3
[48] = test system: OVCAR-8
[49] = test system: LXFL 529
[50] = test system: HOP-92
[51] = test system: NCI-H226
[52] = test system: SF-268
[53] = test system: RXF 393
[54] = test system: COLO 205
[55] = test system: LOX IMVI
[56] = test system: IGROV-1
[57] = test system: A498
[58] = test system: MCF7
[59] = test system: NCI/ADR-RES

N#Cc1ccc(Nc2cnc3cc(N)ccc3n2)cc1
GI50 [1]: 83.4 µM (inactive) | GI50 [2]: > 100 µM (inactive) | GI50 [3]: > 100 µM (inactive) | GI50 [4]: > 100 µM (inactive) | GI50 [5]: 66.5 µM (inactive) | GI50 [6]: 50.5 µM (inactive) | GI50 [7]: > 100 µM (inactive) | GI50 [8]: 89.1 µM (inactive) | GI50 [9]: > 100 µM (inactive) | GI50 [10]: 42.7 µM (inactive) | GI50 [11]: 94 µM (inactive) | GI50 [12]: 98.2 µM (inactive) | GI50 [13]: > 100 µM (inactive) | GI50 [14]: > 100 µM (inactive) | GI50 [15]: 28.3 µM (inactive) | GI50 [16]: > 100 µM (inactive) | GI50 [17]: > 100 µM (inactive) | GI50 [18]: 71.4 µM (inactive) | GI50 [19]: > 100 µM (inactive) | GI50 [20]: 44.4 µM (inactive) | GI50 [21]: 89.7 µM (inactive) | GI50 [22]: 74.6 µM (inactive) | GI50 [23]: > 100 µM (inactive) | GI50 [24]: 33 µM (inactive) | GI50 [25]: 60.5 µM (inactive) | GI50 [26]: 48.2 µM (inactive) | GI50 [27]: 85.1 µM (inactive) | GI50 [28]: > 100 µM (inactive) | GI50 [29]: > 100 µM (inactive) | GI50 [30]: 55 µM (inactive) | GI50 [31]: > 100 µM (inactive) | GI50 [32]: > 100 µM (inactive) | GI50 [33]: > 100 µM (inactive) | GI50 [34]: > 100 µM (inactive) | GI50 [35]: > 100 µM (inactive) | GI50 [36]: > 100 µM (inactive) | GI50 [37]: 14.9 µM (inactive) | GI50 [38]: 69 µM (inactive) | GI50 [39]: 56 µM (inactive) | GI50 [40]: > 100 µM (inactive) | GI50 [41]: 41.7 µM (inactive) | GI50 [42]: > 100 µM (inactive) | GI50 [43]: > 100 µM (inactive) | GI50 [44]: 58.1 µM (inactive) | GI50 [45]: > 100 µM | GI50 [46]: > 100 µM (inactive) | GI50 [47]: 95.9 µM (inactive) | GI50 [48]: > 100 µM (inactive) | GI50 [49]: 59.7 µM (inactive) | GI50 [50]: 54.5 µM (inactive) | GI50 [51]: > 100 µM (inactive) | GI50 [52]: > 100 µM (inactive) | GI50 [53]: 26.5 µM (inactive) | GI50 [54]: > 100 µM (inactive) | GI50 [55]: 75.2 µM (inactive)

COC(=O)C1C(O)C(C)C(O)C(C)/C=C\C=C(C)C(=O)Nc2c(C)c(OC(C)=O)c3c(c2O)C(=O)C(C)=C2OCOC(=C23)C(C)=CC(C)(O)C(O)C(C)C1O (centres undefined)
GI50 [3]: > 75 µM (inactive) | GI50 [4]: 18.1 µM (inactive) | GI50 [5]: 33.7 µM (inactive) | GI50 [6]: 21.7 µM (inactive) | GI50 [56]: > 75 µM (inactive) | GI50 [11]: 34 µM (inactive) | GI50 [14]: 25 µM (inactive) | GI50 [16]: 52.6 µM (inactive) | GI50 [18]: > 75 µM (inactive) | GI50 [19]: 60.4 µM (inactive) | GI50 [23]: 62.5 µM (inactive) | GI50 [25]: 19.7 µM (inactive) | GI50 [28]: > 60.5 µM (inactive) | GI50 [29]: > 75 µM (inactive) | GI50 [30]: 26.4 µM (inactive) | GI50 [57]: 63.1 µM (inactive) | GI50 [31]: 18.3 µM (inactive) | GI50 [32]: 32.1 µM (inactive) | GI50 [34]: 45.4 µM (inactive) | GI50 [36]: 40 µM (inactive) | GI50 [37]: 18.7 µM (inactive) | GI50 [58]: 20.1 µM (inactive) | GI50 [39]: 72.6 µM (inactive) | GI50 [40]: 26.6 µM (inactive) | GI50 [42]: > 75 µM (inactive) | GI50 [43]: 41.4 µM (inactive) | GI50 [47]: 42.4 µM (inactive) | GI50 [48]: 28.6 µM (inactive) | GI50 [59]: 56.9 µM (inactive) | GI50 [50]: 60.1 µM (inactive) | GI50 [51]: 61.7 µM (inactive) | GI50 [52]: 43.9 µM (inactive) | GI50 [54]: 17.4 µM (inactive)

Oc1ccc(C2Oc3cc(O)cc4c3C2c2cc(O)cc3c2C(c2cc(O)cc5c2C4C(c2ccc(O)cc2)O5)C(c2ccc(O)cc2)O3)cc1 (centres undefined)
GI50 [1]: > 25 µM (inactive) | GI50 [2]: > 25 µM (inactive) | GI50 [3]: > 25 µM (inactive) | GI50 [4]: 5.51 µM (inactive) | GI50 [5]: > 25 µM (inactive) | GI50 [7]: 3.19 µM (inactive) | GI50 [8]: 8.05 µM (inactive) | GI50 [9]: > 25 µM (inactive) | GI50 [10]: 7.45 µM (inactive) | GI50 [11]: 13.2 µM (inactive) | GI50 [12]: > 25 µM (inactive) | GI50 [13]: 4.4 µM (inactive) | GI50 [14]: 7.73 µM (inactive) | GI50 [15]: 7 µM (inactive) | GI50 [16]: 8.07 µM (inactive) | GI50 [17]: 6.11 µM (inactive) | GI50 [18]: 4.78 µM (inactive) | GI50 [19]: 6.32 µM (inactive) | GI50 [20]: 6.35 µM (inactive) | GI50 [21]: 10.4 µM (inactive) | GI50 [22]: 5.51 µM (inactive) | GI50 [24]: 5.78 µM (inactive) | GI50 [25]: 7.11 µM (inactive) | GI50 [26]: 6.55 µM (inactive) | GI50 [27]: 14.2 µM (inactive) | GI50 [28]: 5.58 µM (inactive) | GI50 [29]: 16.5 µM (inactive) | GI50 [30]: 7.48 µM (inactive) | GI50 [57]: > 25 µM (inactive) | GI50 [31]: > 25 µM (inactive) | GI50 [32]: 10.5 µM (inactive) | GI50 [33]: 7.4 µM (inactive) | GI50 [34]: 5.7 µM (inactive) | GI50 [35]: > 25 µM (inactive) | GI50 [36]: 10.9 µM (inactive) | GI50 [37]: 0.834 µM (active) | GI50 [38]: > 25 µM (inactive) | GI50 [39]: 8.24 µM (inactive) | GI50 [40]: 5.28 µM (inactive) | GI50 [41]: 6.89 µM (inactive) | GI50 [44]: 12.6 µM (inactive) | GI50 [45]: > 25 µM | GI50 [46]: 8.15 µM (inactive) | GI50 [47]: 7 µM (inactive) | GI50 [48]: 6.61 µM (inactive) | GI50 [49]: 5.41 µM (inactive) | GI50 [50]: 3.94 µM (inactive) | GI50 [51]: 6.19 µM (inactive) | GI50 [52]: 5.12 µM (inactive) | GI50 [54]: > 25 µM (inactive) | GI50 [55]: 7.05 µM (inactive)
